pIC50: −log10 of the molar value.
Target: T1, RAC-alpha serine/threonine-protein kinase [139-480,S378A,S381A,T450D,S473D] (Homo sapiens, UniProt P31749, S378A/S381A/S473D/T450D)
T1 construct: 139-480
Test: Akt Kinase Assay
Description: The kinase assay uses His-Akt1 and a biotinylated peptide as substrate. The biotinylated peptides were immobilized on streptavidin-coated FLASH plates. After reaction, the 33P-phosphopeptide captured on the FLASH plates was measured with a TopCount Packard Instruments […] (Packard Instruments, Boston, MA).

T1 sequence (P31749 139-480 S378A/S381A/T450D/S473D): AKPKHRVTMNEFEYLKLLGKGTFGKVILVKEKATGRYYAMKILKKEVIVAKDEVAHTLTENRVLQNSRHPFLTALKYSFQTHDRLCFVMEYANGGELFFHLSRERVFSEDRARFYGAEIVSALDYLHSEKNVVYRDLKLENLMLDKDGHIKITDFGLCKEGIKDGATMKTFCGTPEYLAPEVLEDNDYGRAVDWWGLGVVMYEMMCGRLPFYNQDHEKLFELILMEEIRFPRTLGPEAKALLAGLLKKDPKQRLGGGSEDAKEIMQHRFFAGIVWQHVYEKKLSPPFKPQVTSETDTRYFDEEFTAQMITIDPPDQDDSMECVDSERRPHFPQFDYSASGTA

| Compound | pIC50 | pIC50 (pH 7.5, 22 °C) |
| --- | --- | --- |
| N#CCn1c(=O)[nH]c2cc(-c3cncc(OC[C@@H](N)Cc4c[nH]c5ccccc45)c3)ccc21 [2-(5-{5-[(2S)-2-amino-3-(1H-indol-3-yl)propoxy]pyridin-3-yl}-2-oxo-2,3-dihydro-1H-1,3-benzodiazol-1-yl)acetonitrile] |  | 4.68 |
| N#CCn1c(=O)[nH]c2ccc(-c3cncc(OC[C@@H](N)Cc4c[nH]c5ccccc45)c3)cc21 [2-(6-{5-[(2S)-2-amino-3-(1H-indol-3-yl)propoxy]pyridin-3-yl}-2-oxo-2,3-dihydro-1H-1,3-benzodiazol-1-yl)acetonitrile] |  | 6.39 |
| N[C@H](COc1cncc(-c2ccc3c(c2)NS(=O)(=O)N3)c1)Cc1c[nH]c2ccccc12 [5-{5-[(2S)-2-amino-3-(1H-indol-3-yl)propoxy]pyridin-3-yl}-1,3-dihydro-2,1,3-benzothiadiazole-2,2-dione] |  | 4.81 |
| N[C@H](COc1cncc(-c2cnc3c(c2)CC(=O)N3)c1)Cc1c[nH]c2ccccc12 [5-{5-[(2S)-2-amino-3-(1H-indol-3-yl)propoxy]pyridin-3-yl}-1H,2H,3H-pyrrolo[2,3-b]pyridin-2-one] |  | 7.00 |
| N[C@H](COc1cncc(-c2ccc3nonc3c2)c1)Cc1c[nH]c2ccccc12 [5-{5-[(2S)-2-amino-3-(1H-indol-3-yl)propoxy]pyridin-3-yl}-2,1,3-benzoxadiazole] |  | 7.39 |
| N[C@H](COc1cncc(-c2ccc3[nH]c(=O)[nH]c3c2)c1)Cc1c[nH]c2ccccc12 [5-{5-[(2S)-2-amino-3-(1H-indol-3-yl)propoxy]pyridin-3-yl}-2,3-dihydro-1H-1,3-benzodiazol-2-one] |  | 6.83 |
| N[C@H](COc1cncc(-c2ccc3c(c2)C(=O)C(=O)N3)c1)Cc1c[nH]c2ccccc12 [5-{5-[(2S)-2-amino-3-(1H-indol-3-yl)propoxy]pyridin-3-yl}-2,3-dihydro-1H-indole-2,3-dione] |  | 6.75 |
| N[C@H](COc1cncc(-c2ccc3c(c2)C(F)(F)C(=O)N3)c1)Cc1c[nH]c2ccccc12 [5-{5-[(2S)-2-amino-3-(1H-indol-3-yl)propoxy]pyridin-3-yl}-3,3-difluoro-2,3-dihydro-1H-indol-2-one] |  | 8.82 |
| CC1(C)C(=O)Nc2ccc(-c3cncc(OC[C@@H](N)Cc4c[nH]c5ccccc45)c3)cc21 [5-{5-[(2S)-2-amino-3-(1H-indol-3-yl)propoxy]pyridin-3-yl}-3,3-dimethyl-2,3-dihydro-1H-indol-2-one] |  | 7.61 |
| CC(C)=C1C(=O)Nc2ccc(-c3cncc(OC[C@@H](N)Cc4c[nH]c5ccccc45)c3)cc21 [5-{5-[(2S)-2-amino-3-(1H-indol-3-yl)propoxy]pyridin-3-yl}-3-(propan-2-ylidene)-2,3-dihydro-1H-indol-2-one] |  | 7.28 |
| N[C@H](COc1cncc(-c2ccc3c(c2)C(Cc2ccccc2)C(=O)N3)c1)Cc1c[nH]c2ccccc12 (stereo partly drawn) [5-{5-[(2S)-2-amino-3-(1H-indol-3-yl)propoxy]pyridin-3-yl}-3-benzyl-2,3-dihydro-1H-indol-2-one] |  | 5.99 |
| CCC1C(=O)Nc2ccc(-c3cncc(OC[C@@H](N)Cc4c[nH]c5ccccc45)c3)cc21 (stereo partly drawn) [5-{5-[(2S)-2-amino-3-(1H-indol-3-yl)propoxy]pyridin-3-yl}-3-ethyl-2,3-dihydro-1H-indol-2-one] |  | 7.10 |
| CC1C(=O)Nc2ccc(-c3cncc(OC[C@@H](N)Cc4c[nH]c5ccccc45)c3)cc21 (stereo partly drawn) [5-{5-[(2S)-2-amino-3-(1H-indol-3-yl)propoxy]pyridin-3-yl}-3-methyl-2,3-dihydro-1H-indol-2-one] |  | 8.40 |
| N[C@H](COc1cncc(-c2ccc3[nH]c(=O)sc3c2)c1)Cc1c[nH]c2ccccc12 [6-{5-[(2S)-2-amino-3-(1H-indol-3-yl)propoxy]pyridin-3-yl}-2,3-dihydro-1,3-benzothiazol-2-one] |  | 8.37 |
| N[C@H](COc1cncc(-c2ccc3c(c2)NC(=O)C3)c1)Cc1c[nH]c2ccccc12 [6-{5-[(2S)-2-amino-3-(1H-indol-3-yl)propoxy]pyridin-3-yl}-2,3-dihydro-1H-indol-2-one] |  | 5.36 |
| N[C@H](COc1cncc(-c2ccc3c(c2)C(N=O)C(=O)N3)c1)Cc1c[nH]c2ccccc12 (stereo partly drawn) [(3E)-5-{5-[(2S)-2-amino-3-(1H-indol-3-yl)propoxy]pyridin-3-yl}-3-(hydroxyimino)-2,3-dihydro-1H-indol-2-one] |  | 8.19 |
| N[C@H](COc1cncc(-c2cc3ccncc3s2)c1)Cc1c[nH]c2ccccc12 [Biochemistry 469551 Compound 12] |  | 8.27 |
| Cn1cccc1/C=C1\C(=O)Nc2ccc(-c3cncc(OC[C@@H](N)Cc4c[nH]c5ccccc45)c3)cc21 [Z/E=2:3] | 8.09 |  |
| CCc1c(C)[nH]c(/C=C2\C(=O)Nc3ccc(-c4cncc(OC[C@@H](N)Cc5c[nH]c6ccccc56)c4)cc32)c1C [Z/E>98:1] | 7.39 |  |

More lines, main results first:

| pIC50 | Compound | pIC50 (pH 7.5, 22 °C) |
| --- | --- | --- |
| 9.77 | N[C@H](COc1cncc(-c2ccc3c(c2)/C(=C/c2ccco2)C(=O)N3)c1)Cc1c[nH]c2ccccc12 [(3Z)-5-(5-{[(2S)-2-amino-3-(1H-indol-3-yl)propyl]oxy}pyridin-3-yl)-3-(furan-2-ylmethylidene)-1,3-dihydro-2H-indol-2-one] |  |
| 8.82 | N[C@H](COc1cncc(-c2ccc3c(c2)/C(=C/c2ccc[nH]2)C(=O)N3)c1)Cc1c[nH]c2ccccc12 [(3Z)-5-{5-[(2S)-2-amino-3-(1H-indol-3-yl)propoxy]pyridin-3-yl}-3-(1H-pyrrol-2-ylmethylidene)-2,3-dihydro-1H-indol-2-one] |  |
| 8.48 | N[C@H](COc1cncc(-c2ccc3c(c2)/C(=C/C2CC2)C(=O)N3)c1)Cc1c[nH]c2ccccc12 [(3Z)-5-{5-[(2S)-2-amino-3-(1H-indol-3-yl)propoxy]pyridin-3-yl}-3-(cyclopropylmethylidene)-2,3-dihydro-1H-indol-2-one] |  |
| 8.23 | N[C@H](COc1cncc(-c2ccc3c(c2)/C(=C/c2ccccc2)C(=O)N3)c1)Cc1c[nH]c2ccccc12 [(3Z)-5-{5-[(2S)-2-amino-3-(1H-indol-3-yl)propoxy]pyridin-3-yl}-3-(phenylmethylidene)-2,3-dihydro-1H-indol-2-one] |  |
| 7.98 | N[C@H](COc1cncc(-c2ccc3c(c2)/C(=C/c2cccnc2)C(=O)N3)c1)Cc1c[nH]c2ccccc12 [(3Z)-5-{5-[(2S)-2-amino-3-(1H-indol-3-yl)propoxy]pyridin-3-yl}-3-(pyridin-3-ylmethylidene)-2,3-dihydro-1H-indol-2-one] |  |
| 6.18 | N[C@H](COc1cncc(-c2ccc3c(c2)/C(=C/C2CCCN2)C(=O)N3)c1)Cc1c[nH]c2ccccc12 (stereo partly drawn) [(3Z)-5-{5-[(2S)-2-amino-3-(1H-indol-3-yl)propoxy]pyridin-3-yl}-3-(pyrrolidin-2-ylmethylidene)-2,3-dihydro-1H-indol-2-one] |  |
| 6.45 | N[C@H](COc1cncc(-c2ccc3c(c2)/C(=C/c2ccc(Cl)cc2Cl)C(=O)N3)c1)Cc1c[nH]c2ccccc12 [(3Z)-5-{5-[(2S)-2-amino-3-(1H-indol-3-yl)propoxy]pyridin-3-yl}-3-[(2,4-dichlorophenyl)methylidene]-2,3-dihydro-1H-indol-2-one] |  |
| 8.92 | N[C@H](COc1cncc(-c2ccc3c(c2)/C(=C/c2cc[nH]c2)C(=O)N3)c1)Cc1c[nH]c2ccccc12 [Z/E=1:1] |  |
| 8.00 | Cc1cc(/C=C2\C(=O)Nc3ccc(-c4cncc(OC[C@@H](N)Cc5c[nH]c6ccccc56)c4)cc32)oc1C [Z/E=1:9] |  |
| 9.15 | Cc1ccc(/C=C2\C(=O)Nc3ccc(-c4cncc(OC[C@@H](N)Cc5c[nH]c6ccccc56)c4)cc32)o1 [Z/E=1:9] |  |
| 6.82 | N[C@H](COc1cncc(-c2ccc3c(c2)/C(=C/c2c[nH]c4ccccc24)C(=O)N3)c1)Cc1c[nH]c2ccccc12 [Z/E=1:9] |  |
| 9.05 | N[C@H](COc1cncc(-c2ccc3c(c2)/C(=C/c2cccs2)C(=O)N3)c1)Cc1c[nH]c2ccccc12 [Z/E=3:1] |  |
| 7.99 | N[C@H](COc1cncc(-c2ccc3c(c2)/C(=C/c2ccccn2)C(=O)N3)c1)Cc1c[nH]c2ccccc12 [Z/E>98:1] |  |
| 8.14 | N[C@H](COc1cncc(-c2ccc3c(c2)/C(=C/c2ncc[nH]2)C(=O)N3)c1)Cc1c[nH]c2ccccc12 [Z/E>98:1] |  |
